Laboratory results: PubChem BioAssay AID248 (DTP/NCI, 2004)
Several values for one entry are separate records, joined by “and”; a condition that tells them apart may be missing. Identical values can stand only once. Inconclusive results and toxic doses are left out. Rule as the data show it: active = T/C of 150% or more; inactive = T/C below 125%.

Tested on: L1210 leukemia ip in BDF1 mice, survival T/C
Assay: NCI In Vivo Anticancer Drug Screen. Data for tumor model L1210 Leukemia (intraperitoneal) in B6D2F1 (BDF1) mice
Details: endpoint: mean survival time, higher = longer survival
Outline: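 Value reflects the ratio of survival in compound-treated mice to survival in vehicle-treated controls, with both groups carrying the same transplanted tumor.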

[1] = dose: 50.0 mg/kg/injection, schedule: Q01DX009 (ip), vehicle: saline
[2] = dose: 75.0 mg/kg/injection, schedule: Q01DX001 (ip), vehicle: carboxymethylcellulose (CMC)
[3] = dose: 100.0 mg/kg/injection, schedule: Q01DX001 (ip), vehicle: saline
[4] = dose: 100.0 mg/kg/injection, schedule: Q01DX009 (ip), vehicle: saline
[5] = dose: 200.0 mg/kg/injection, schedule: Q01DX001 (ip), vehicle: saline
[6] = dose: 400.0 mg/kg/injection, schedule: Q01DX009 (ip), vehicle: saline
[7] = dose: 100.0 mg/kg/injection, schedule: Q04DX002 (ip), vehicle: saline
[8] = dose: 200.0 mg/kg/injection, schedule: Q04DX002 (ip), vehicle: saline
[9] = dose: 400.0 mg/kg/injection, schedule: Q04DX002 (ip), vehicle: saline
[10] = dose: 100.0 mg/kg/injection, schedule: Q04DX003 (ip), vehicle: saline with Tween-80
[11] = dose: 200.0 mg/kg/injection, schedule: Q04DX003 (ip), vehicle: saline with Tween-80
[12] = dose: 400.0 mg/kg/injection, schedule: Q04DX003 (ip), vehicle: saline with Tween-80

Measured: T/C

O=C1C=CC(=O)O1 (tested in a mixture with another compound)
inactive: dose: 0.22 mg/kg/injection, schedule: Q01DX009 (ip), vehicle: acetone 96 % of control | dose: 0.44 mg/kg/injection, schedule: Q01DX009 (ip), vehicle: acetone 105 % of control | dose: 0.78 mg/kg/injection, schedule: Q04DX003 (ip), vehicle: other 93 % of control | dose: 0.88 mg/kg/injection, schedule: Q01DX009 (ip), vehicle: acetone 92 % of control | dose: 1.56 mg/kg/injection, schedule: Q04DX003 (ip), vehicle: other 96 % of control | dose: 3.12 mg/kg/injection, schedule: Q04DX003 (ip), vehicle: other 104 % of control | dose: 4.6 mg/kg/injection, schedule: Q04DX003 (ip), vehicle: Klucel (hydroxypropylcellulose) (HPC) 96 % of control | dose: 7.1 mg/kg/injection, schedule: Q04DX003 (ip), vehicle: Klucel (hydroxypropylcellulose) (HPC) 96 % of control | dose: 15.0 mg/kg/injection, schedule: Q01DX001 (ip), vehicle: carboxymethylcellulose (CMC) 112 % of control | dose: 22.0 mg/kg/injection, schedule: Q01DX015 (ip), vehicle: carboxymethylcellulose (CMC) 101 % of control and 119 % of control | dose: 30.0 mg/kg/injection, schedule: Q01DX001 (ip), vehicle: carboxymethylcellulose (CMC) 116 % of control | dose: 31.25 mg/kg/injection, schedule: Q#A X Z (ip), vehicle: carboxymethylcellulose (CMC) 96 % of control and 93 % of control and 108 % of control | dose: 33.0 mg/kg/injection, schedule: Q01DX015 (ip), vehicle: carboxymethylcellulose (CMC) 101 % of control and 103 % of control | [1] 107 % of control [middle of 5 runs] | dose: 50.0 mg/kg/injection, schedule: Q01DX015 (ip), vehicle: carboxymethylcellulose (CMC) 108 % of control | dose: 62.5 mg/kg/injection, schedule: Q#A X Z (ip), vehicle: carboxymethylcellulose (CMC) 96 % of control and 95 % of control and 106 % of control | [2] 119 % of control | dose: 75.0 mg/kg/injection, schedule: Q01DX001 (ip), vehicle: water 104 % of control | dose: 75.0 mg/kg/injection, schedule: Q01DX015 (ip), vehicle: carboxymethylcellulose (CMC) 98 % of control | [3] 115 % of control | [4] 112 % of control [middle of 7 runs] | dose: 100.0 mg/kg/injection, schedule: Q04DX003 (ip), vehicle: saline 107 % of control and 112 % of control and 109 % of control | dose: 125.0 mg/kg/injection, schedule: Q#A X Z (ip), vehicle: carboxymethylcellulose (CMC) 86 % of control and 102 % of control and 106 % of control | dose: 125.0 mg/kg/injection, schedule: Q#A X Z (oral), vehicle: carboxymethylcellulose (CMC) 106 % of control and 100 % of control | dose: 150.0 mg/kg/injection, schedule: Q01DX001 (ip), vehicle: water 106 % of control | dose: 177.0 mg/kg/injection, schedule: Q01DX001 (ip), vehicle: saline 98 % of control | [5] 107 % of control | dose: 200.0 mg/kg/injection, schedule: Q04DX003 (ip), vehicle: saline 106 % of control [middle of 4 runs] | dose: 250.0 mg/kg/injection, schedule: Q#A X Z (ip), vehicle: carboxymethylcellulose (CMC) 86 % of control and 108 % of control and 90 % of control | dose: 250.0 mg/kg/injection, schedule: Q#A X Z (oral), vehicle: carboxymethylcellulose (CMC) 106 % of control and 100 % of control and 103 % of control | dose: 270.0 mg/kg/injection, schedule: Q01DX001 (ip), vehicle: saline 105 % of control | dose: 300.0 mg/kg/injection, schedule: Q01DX001 (ip), vehicle: water 97 % of control | dose: 400.0 mg/kg/injection, schedule: Q01DX001 (ip), vehicle: saline 112 % of control and 100 % of control | [6] 113 % of control | dose: 500.0 mg/kg/injection, schedule: Q#A X Z (oral), vehicle: carboxymethylcellulose (CMC) 100 % of control and 102 % of control | dose: 600.0 mg/kg/injection, schedule: Q01DX001 (ip), vehicle: saline 94 % of control | dose: 1000.0 mg/kg/injection, schedule: Q#A X Z (oral), vehicle: carboxymethylcellulose (CMC) 100 % of control and 106 % of control and 102 % of control

OC1OCCOC1O (stereo not given)
inactive: [1] 100 % of control | [4] 100 % of control | dose: 200.0 mg/kg/injection, schedule: Q01DX009 (ip), vehicle: saline 109 % of control | [6] 103 % of control

C=COP(OCCCC)OCCCC
inactive: dose: 25.0 mg/kg/injection, schedule: Q04DX002 (ip), vehicle: saline 94 % of control | dose: 50.0 mg/kg/injection, schedule: Q04DX002 (ip), vehicle: saline 91 % of control | [7] 93 % of control and 97 % of control | [8] 91 % of control | [9] 96 % of control

Nc1ncnc2c1ncn2C1OCC(O)C1CO (stereo not given)
inactive: dose: 50.0 mg/kg/injection, schedule: Q01DX001 (ip), vehicle: saline 111 % of control | [3] 109 % of control | [5] 105 % of control

C/C(=C\c1ccc(C)cc1)[N+](=O)[O-]
inactive: dose: 50.0 mg/kg/injection, schedule: Q01DX001 (ip), vehicle: other 108 % of control | dose: 100.0 mg/kg/injection, schedule: Q01DX001 (ip), vehicle: other 100 % of control | dose: 200.0 mg/kg/injection, schedule: Q01DX001 (ip), vehicle: other 92 % of control | dose: 400.0 mg/kg/injection, schedule: Q01DX001 (ip), vehicle: other 103 % of control

CCOC(=O)NCC(CCN(CC)CC)(c1cccc2ccccc12)C(C)CC (stereo not given)
inactive: [7] 93 % of control | [8] 90 % of control | [9] 100 % of control

CC(=O)OCc1ccc(O)c2ncccc12
inactive: [2] 96 % of control | dose: 150.0 mg/kg/injection, schedule: Q01DX001 (ip), vehicle: carboxymethylcellulose (CMC) 100 % of control

Sc1ccccc1
inactive: [10] 92 % of control | [11] 99 % of control | [12] 94 % of control

[Cl][Pt+2][Cl].c1ccc(C2CC[N-]CC2)cc1.c1ccc(C2CC[N-]CC2)cc1
inactive: dose: 6.25 mg/kg/injection, schedule: Q04DX003 (ip), vehicle: water 100 % of control | dose: 12.5 mg/kg/injection, schedule: Q04DX003 (ip), vehicle: water 100 % of control | dose: 25.0 mg/kg/injection, schedule: Q04DX003 (ip), vehicle: water 105 % of control | dose: 50.0 mg/kg/injection, schedule: Q04DX003 (ip), vehicle: water 102 % of control

O=C(Nc1ccc(Cl)cc1[N+](=O)[O-])Nc1ccccc1C(F)(F)F
inactive: dose: 100.0 mg/kg/injection, schedule: Q01DX001 (ip), vehicle: saline with Tween-80 93 % of control | dose: 100.0 mg/kg/injection, schedule: Q01DX009 (ip), vehicle: saline with Tween-80 94 % of control and 90 % of control | dose: 100.0 mg/kg/injection, schedule: Q04DX002 (ip), vehicle: saline with Tween-80 95 % of control and 96 % of control | [10] 97 % of control | dose: 200.0 mg/kg/injection, schedule: Q01DX001 (ip), vehicle: saline with Tween-80 90 % of control | dose: 200.0 mg/kg/injection, schedule: Q01DX009 (ip), vehicle: saline with Tween-80 100 % of control and 92 % of control | dose: 200.0 mg/kg/injection, schedule: Q04DX002 (ip), vehicle: saline with Tween-80 93 % of control and 98 % of control | [11] 88 % of control | dose: 400.0 mg/kg/injection, schedule: Q01DX001 (ip), vehicle: saline with Tween-80 101 % of control | dose: 400.0 mg/kg/injection, schedule: Q01DX009 (ip), vehicle: saline with Tween-80 94 % of control and 87 % of control | dose: 400.0 mg/kg/injection, schedule: Q04DX002 (ip), vehicle: saline with Tween-80 91 % of control | [12] 88 % of control

CCCC(=O)OCC
inactive: dose: 100.0 mg/kg/injection, schedule: Q01DX009 (ip), vehicle: Klucel (hydroxypropylcellulose) (HPC) 100 % of control | dose: 200.0 mg/kg/injection, schedule: Q01DX009 (ip), vehicle: Klucel (hydroxypropylcellulose) (HPC) 105 % of control | dose: 400.0 mg/kg/injection, schedule: Q01DX009 (ip), vehicle: Klucel (hydroxypropylcellulose) (HPC) 97 % of control
